Data on three compounds can be found in patent publication US7635779B2, “Oxy substituted flavones as antihyperglycemic and antidyslipidemic agents” (Council of Scientific & Industrial Research, priority 2004, dated 2009).

Read-outs that look alike come from different tables or passages of the source.

Assay [1] concerns triton WR-1339 induced hyperlipidemic rats. In words: Triton model, antidyslipidemic activity. The format is in vivo, rat. The note with it: 100 mg/kg oral, plasma after 18 h; for inhibition in vivo at 100 mg/kg: Rattus norvegicus. On the procedure:
Male Charles foster rats weighing 200-225 g were divided into control, hyperlipidemic and hyperlipidemic plus drug treated groups containing six animals in each group. Hyperlipidemia was induced by administration of triton WR-1339 (200 mg/kg i.p.). All animals were maintained on a special pellet diet and water ad libitum. Compounds and standard drug were macerated with 0.2% aqueous gum acacia suspension. The suspension was fed orally at the dose of 100 mg/kg simultaneously with triton in drug treated group. The animals of control group received the same amount of gum acacia by similar route of administration. At the end of the experiment, after 18 h, blood was withdrawn from retro orbital plexus and plasma was used for the assay of total cholesterol, phospholipid and triglycerides.
Cholesterol was estimated using the kit provided by Roche Diagnostics. Cholesterol esters are enzymatically hydrolyzed by cholesterol esterase (CE) to cholesterol and free fatty acids. Free cholesterol, including that originally present, is then oxidized by cholesterol oxidase (CO) to cholest-4-en-3-one and hydrogen peroxide. The hydrogen peroxide combines with hydroxy benzoic acid (HBA) and 4-aminoantipyrine (4AAA) in the presence of peroxidase (POD) to form a chromophore (quinoneimine dye), which may be quantitated at 500-505 nm. The intensity of red colour formed is directly proportional to the concentration of total cholesterol in the specimen and measured spectrophotometrically (Searcy, C. L. Diagnostic Biochemistry, 1969, McGraw Hill, New York; Ellefson, R. D.; Caraway, W. T. Fundamentals of clinical chemistry, 1976, Ed Tietz N W, 506-515.)
Triglycerides were estimated using the kit provided by Roche Diagnostics. Lipoprotein lipase hydrolyses triglycerides to yield glycerol and fatty acids. Glycerol kinase converts glycerol to glycerol-3-phosphate, which is oxidized by glycerol phosphate oxidase to dihydroxy acetone phosphate and hydrogen peroxide. In the presence of peroxidase, hydrogen peroxide oxidatively couples with 4-aminoantipyrine and 4-chloro phenol to produce red quinonimine dye. The intensity of red colour formed is directly proportional to the concentration of triglycerides in the specimen and is measured by photometrically (Wahlefeld, A. W.; Bergmeyer, H. U. Ed. Methods of enzymatic analysis, 2nd English edition, New York, N.Y., Academic press inc, 1831-1840.).
Serum (0.2 mL) and perchloric acid (1.0 mL) was digested at 180° C. for 1-1.5 h till the solution became colorless. The liberated inorganic phosphate (Pi) was measured by the method of Fiske and Subbarow (Fiske, C. H.; Subbarow, V. J. Biol. Chem. 1925, 66, 375.). 1 mL of 2.5% ammonium molybdate (prepared in 5 N sulphuric acid) and 0.5 mL reducing agent (4-amino naphthol sulphonic acid, 0.2%), sodium metabisulphite (2.4% w/v in distilled water) was added to the above tubes and mixed well. The reaction mixture was […] with 2.5 mL of triple distilled water and kept at 60° C. in water bath for 20 min. For standard, an appropriate amount of potassium dihydrogen phosphate dissolved in triple distilled water containing 2-10 μg phosphorous (Pi) was run simultaneously with the experiment tubes. The optical density of the blue colour was recorded at 620 nm against reagent blank. The values of Pi were converted into phospholipid by multiplying with 25 (a constant calibrated from Pi value of lecithin).

For a further assay, the system named is sucrose loaded rat. In words: Sucrose loaded rat model (SLM), antihyperglycemic activity. In kind it is in vivo. As to conditions: for inhibition in vivo at 100 mg/kg: Rattus norvegicus, po, 2 h, read-out: % Fall in blood glucose levels, SLM. As to the method: Male albino rats of Charles Foster/Wistar strain of average body weight 160±20 g were selected for this study. The blood glucose level of each animal was checked by glucometer using glucostrips (Boehringer Mannheim) after 16 h starvation. Animals showing blood glucose levels between 3.33 to 4.44 mM (60 to 80 mg/dl) were divided into groups of five to six animals in each. Animals of experimental group were administered suspension of the desired synthetic compound orally (made in 1.0% gum acacia) at a dose of 100-mg/kg-body weight. Animals of control group were given an equal amount of 1.0% gum acacia. A sucrose load (10.0 g/kg) was given to each animal orally exactly after 30 min post administration of the test sample/vehicle. Blood glucose profile of each rat was again determined at 30, 60, 90 and 120 min post administration of sucrose by glucometer. Food but not water was withheld from the cages during the course of experimentation. Quantitative glucose tolerance of each animal was calculated by Area Under Curve (AUC) method (Prism Software). Comparing the AUC of experimental and control groups determined the percentage antihyperglycemic activity. Statistical comparison was made by Dunnett's test.

The mark [2] stands for this setting: phospholipid, read-out: % Fall in lipid levels (Triton model) PL.
[3] abbreviates: total cholesterol, read-out: % Fall in lipid levels (Triton model) TC.
The mark [4] stands for this setting: triglycerides, read-out: % Fall in lipid levels (Triton model) TG.

With `CC(C)NCC(O)COc1ccc2c(=O)cc(-c3cc(O)cc(O)c3)oc2c1` (stereo not shown) [Compound 49, 3′,5′-Dihydroxy-7-(2-hydroxy-3-iso-propylamino-propoxy)-flavone], the inhibition in vivo at 100 mg/kg in assay [1] (setting [2]) was determined as 28%; in assay [1] (setting [3]) it was 32%; in assay [1] (setting [4]) it was 32%; with sucrose loaded rat, 29%.

Consider `COc1cc(-c2cc(=O)c3ccc(OCCCOc4ccc(C=C5SC(=O)NC5=O)cc4)cc3o2)cc(OC)c1OC` [Compound 65, 7-{3-[4-(thiazolidin-2,4-dione-5-ylidinemethyl)-phenoxy]-propoxy}-3′,4′,5′-trimethoxy-flavone], for which the “% Fall in lipid levels (Triton model) PL” value in assay [1] (phospholipid) came to 6%. For the same compound, the “% Fall in lipid levels (Triton model) TC” value in assay [1] (total cholesterol) is on record as 20%. The “% Fall in lipid levels (Triton model) TG” value in assay [1] (triglycerides) stood at 3%. Further, the “% Fall in blood glucose levels, SLM” value in the assay on sucrose loaded rat (100 mg/kg oral, AUC vs control) is 29.30%. For the same compound, the “Antihyperglycemic (glucose lowering) activity in words” value with sucrose loaded rat (SLM as well as STZ model) is “significant and consistent glucose lowering activity”.

Regarding `CC(C)(C)NCC(O)COc1ccc2c(=O)cc(-c3cc(OCc4ccccc4)cc(OCc4ccccc4)c3)oc2c1` (stereo not shown) [Compound 34, 7-(3-tert-Butylamino-2-hydroxy-propoxy)-3′,5′-dibenzyloxy-flavone], the inhibition in vivo at 100 mg/kg in assay [1] (setting [2]) turned out to be 18%; in assay [1] (setting [3]) it was 21%; in assay [1] (setting [4]), 9%; with sucrose loaded rat, 29.4%.
